# Values quoted from earlier work, collected in patent US9180198B2, “Slow-release cilostazol tablet having an improved elution rate and minimal side effects” (KOREA UNITED PHARM, INC., priority 2009, dated 2015).
# Columns and labels:
# blood platelets = blood platelets isolated from a mouse, a rat, a rabbit, a dog and a human
# [1] = tested on: cAMP-PDE (cyclic AMP phosphodiesterase); conditions: in blood platelets and vascular smooth muscles
compound,measurement,setting,value
"O=C1CCc2cc(OCCCCc3nnnn3C3CCCCC3)ccc2N1 [cilostazol, 6-[4-(cyclohexyl-1H-tetrazol-5-yl)butoxy]-3,4-dihydro-2(1H)-quinolinone]","primary aggregation of blood platelets caused by ADP, epinephrine",blood platelets,suppress the primary aggregation of blood platelets
same,cAMP-PDE activity,[1],inhibit cAMP-PDE (cyclic AMP phosphodiesterase) activity
same,water solubility,,poorly water-soluble
